From the METLIN SMRT retention time set (Domingo-Almenara et al. 2019) come the findings set out here.

SMILES strings stand for the structures.

The series is described as follows: gradient 5% acetonitrile 3 min, to 50% in 2 min, to 85% in 15 min, held 3 min, 100 µL/min. The note with it: column: Zorbax Extend-C18 2.1 x 50 mm; eluents: water / acetonitrile, 0.1% formic acid. Summed up: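 In both positive and negative ionization mode, a quadrupole time-of-flight mass spectrometer coupled to HPLC analyzed pure standards run in mixtures of ~100 molecules. The Zorbax Extend-C18 column (2.1 × 50 mm, 1.8 μm) was operated at 100 μL/min with water and acetonitrile, each containing 0.1% formic acid. The dead volume was 40 μL and the dwell volume 900 μL. Retention time came from adduct peaks that were computationally picked and individually inspected by hand.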
On to `O=C(NC1CCCC1)c1cccn1Cc1noc(-c2ccc(Cl)cc2)n1`, for which the RP-LC retention time was found to be 1100 s. Under `CCN1c2cc(F)ccc2C(=O)NC12CCN(C(=O)c1cccc(F)c1)CC2` stands 791 s. Under `COc1ccc(C2(C(=O)N3CCCCCCNC(=O)[C@@H]4CCCC[C@@H]43)CC2)cc1` stands 894 s.

For `CC(=O)N1c2ccc(S(=O)(=O)N3CCC(c4ccncc4)CC3)cc2CC1C` (stereo not drawn), the RP-LC retention time came out at 620 s. Under `COCCN1CCn2cc(S(=O)(=O)Nc3ccc(C)c(F)c3)cc2C1=O` stands 740 s; under `CCCN(C(=O)c1ccco1)c1nc(-c2ccc(C)cc2)cs1`, 1390 s; under `CCOC(=O)c1ccc(N2C=C(C#N)S(=O)(=O)c3cc(F)ccc32)cc1`, 907 s.

Consider `CC(C)NC(=O)c1cc(-c2ccc(F)cc2)cn1C`, for which the RP-LC retention time amounted to 926 s. For the compound `CCC1CCCCN1C(=O)c1cnc2nc(C)ccc2c1Nc1ccc(S(N)(=O)=O)cc1` (stereo not drawn), the RP-LC retention time came out at 589 s.

Take `COCCCNC(=O)N1CCCC(C)(C(=O)NCc2ccccc2C)C1` (stereo not drawn): the RP-LC retention time is 720 s. The compound `CCOc1ccccc1NC(=O)N1CCC(n2cnc3c(Cl)cccc3c2=O)CC1` yielded an RP-LC retention time of 889 s. `CCOc1ccccc1NC(=O)C1CCCN(c2nc3ccccc3nc2OCC)C1` (stereo not drawn): the RP-LC retention time was found to be 1320 s. Under `CC(=O)N(Cc1nn(C)c2c1CN(Cc1sccc1C)CC2)c1ccccc1` stands 611 s.

`Cc1oc(C2CCC2)nc1C(=O)NCc1cc(F)ccc1F` registered an RP-LC retention time of 1030 s. `CCN1C(=O)Cc2cc(C(=O)N3CCN(c4ccccn4)CC3)ccc21` had an RP-LC retention time of 780 s. For the compound `Cc1ccc(Cl)cc1NC(=O)N1CCC(OC2CCN(S(C)(=O)=O)CC2)CC1`, the RP-LC retention time amounted to 801 s.

As to `CCOC(=O)CC(=O)Nc1ccc(-c2nc(-c3cc(C)ccc3C)co2)cc1`, the RP-LC retention time turned out to be 1110 s. Turning to `O=S(=O)(NCCS(=O)(=O)N1CCc2ccccc21)c1cccnc1`, the RP-LC retention time is 700 s. Under `O=C(Cn1cc(-c2ccccc2)c2ncnc(N3CCOCC3)c21)N1CCN(c2ccccc2)CC1` stands 717 s. `COc1cccc(-c2nc(-c3cccc(-c4ccn[nH]4)c3)no2)c1` displayed an RP-LC retention time of 1010 s. `CC(NC(=O)c1ccco1)c1nc(-c2ccc(N3CCCC3)cc2)no1` (stereo not drawn) showed an RP-LC retention time of 941 s.

On to `COc1ccc(-c2ccc3c(N4CCOCC4)nc(N4C[C@@H](C)O[C@@H](C)C4)nc3n2)cc1CO`, for which the RP-LC retention time turned out to be 698 s.

Take `O=C(NC1CCCCCCC1)c1nnc(-c2ccc(S(=O)(=O)N3CCOCC3)cc2)o1`: the RP-LC retention time turned out to be 991 s. As for `O=S(=O)(c1cc(-c2nnc(C3CCC3)o2)co1)N1CCN(c2cccc(Cl)c2)CC1`, the RP-LC retention time was determined as 1120 s.

Turning to `CCN1C(=O)C2(CCN(S(=O)(=O)c3ccc(CC(C)C)cc3)CC2)c2ccccc21`, the RP-LC retention time stood at 587 s. The compound `O=C(NCCc1ccco1)c1ccc2ccnc(N3CCN(c4ccc(Cl)cc4)CC3)c2c1` gave an RP-LC retention time of 887 s.

Take `CCn1cc(-c2nc(-c3ccc(OC)cc3OC)no2)c(=O)c2cc(F)ccc21`: the RP-LC retention time stood at 830 s. As for `CCN1CCN(c2ccc(-c3ccc(C)c(S(=O)(=O)N4CCOCC4)c3)nn2)CC1`, the RP-LC retention time turned out to be 612 s. In turn, `CCc1nn2c(CNC(=O)c3cccc(Br)c3)c(-c3ccccc3)nc2s1` gave an RP-LC retention time of 1030 s. `O=C([C@@H]1C[C@H](F)CN1C(=O)c1ccsc1)N1CCCCC1` yielded an RP-LC retention time of 653 s. As for `COC(=O)c1c(C)[nH]c(C(=O)N2CCCC(C(=O)NCc3cccnc3)C2)c1C` (stereo not drawn), the RP-LC retention time stood at 577 s. Take `CC1CCC(NC(=O)C2CCCN2S(=O)(=O)c2cc3c(cc2Cl)NC(=O)CO3)CC1` (stereo not drawn): the RP-LC retention time amounted to 840 s. Under `CCN1CCN(CCNC(=O)Cn2c3ccccc3c3cnn(C)c(=O)c32)CC1` stands 577 s.

Take `CCC(=O)N1c2ccc(S(=O)(=O)CCC(=O)NCc3ccc(N(C)C)cc3)cc2CC1C` (stereo not drawn): the RP-LC retention time is 617 s. Compound `Cc1csc(-c2csc(S(=O)(=O)Nc3ccc(F)c(Cl)c3)c2)n1` had an RP-LC retention time of 1020 s. `Cc1sc(-c2cc(C(F)(F)F)on2)cc1S(=O)(=O)NC1CC1` gave an RP-LC retention time of 1040 s. With `O=C(Cc1csc2nc(-c3ccccc3)cn12)Nc1ccc(Br)cc1F`, the RP-LC retention time was 883 s. In the case of `CN(CC(=O)N1CCN(C2CCCCC2)CC1)S(=O)(=O)c1ccc2c(c1)CCCC(=O)N2`, the RP-LC retention time amounted to 602 s. Under `Cc1cc(N2CCN(C)CC2)nc2ccc(NC(=O)NC3CCCC3)cc12` stands 568 s; under `O=S(=O)(c1ccc(F)c(Cl)c1)N1CC(F)(F)C[C@H]1CN1CCc2ccccc2C1`, 791 s; under `COC(=O)c1cc(Cl)c(NC(=O)C(C)C)cc1OC`, 767 s. Under `COc1ccc(-c2csc(C)n2)cc1S(=O)(=O)N1CC=C(c2ccccc2)CC1` stands 1130 s; under `Cc1cnc(C2CCOCC2)n1C1CCN(C(=O)NC2CCCCC2)CC1`, 611 s. Take `Cc1ccc(Nc2c(-c3ccccc3O)nc3ccccn23)cc1`: the RP-LC retention time was 739 s.

`COC(=O)c1cc(S(=O)(=O)N2CCCC2C(=O)Nc2ccc(C)cc2Br)cn1C` (stereo not drawn) yielded an RP-LC retention time of 1000 s. Compound `CCCN1CCn2cc(S(=O)(=O)Nc3ccc(OC)cc3)cc2C1=O` gave an RP-LC retention time of 715 s. Take `CCN(CC)S(=O)(=O)c1ccc2nc(N3CCN(C4CCCCC4)CC3)cnc2c1`: the RP-LC retention time stood at 674 s. `O=C(OCc1ccc([N+](=O)[O-])cc1)c1ccc(S(=O)(=O)NCC2CCCO2)cc1` (stereo not drawn) returned an RP-LC retention time of 870 s. `CCN(CC)c1ccc(C2=NNC(=O)CC2C)cc1[N+](=O)[O-]` (stereo not drawn) registered an RP-LC retention time of 773 s. On to `CCc1nccn1Cc1nc(-c2ccc(C(F)(F)F)cc2)no1`, for which the RP-LC retention time came out at 700 s. The compound `COc1ccccc1-c1nc(COC(=O)C2=CN(Cc3ccccc3)S(=O)(=O)N=C2C)no1` gave an RP-LC retention time of 1070 s.

As to `COc1ccc(-c2noc(C3CC(=O)N(c4cc(C)cc(C)c4)C3)n2)cc1OC` (stereo not drawn), the RP-LC retention time turned out to be 922 s. Consider `COCCn1cc2c3c(cccc31)CN(C(=O)Nc1ccc(C)cc1C)CC2`, for which the RP-LC retention time was determined as 970 s. Under `CC1=C(c2ccccc2)S(=O)(=O)N=C1N1CCCN(C(=O)NC2CCCC2)CC1` stands 778 s; under `CC(C)n1cnc(S(=O)(=O)N2CCCC(C(=O)Nc3ccccc3)C2)c1` (stereo not drawn), 768 s; under `CCOC(=O)c1cnc2nc(C)ccc2c1Nc1ccc(F)c(Cl)c1`, 764 s. Under `Cc1nc2nc(-c3ccc(C(C)(C)C)cc3)nn2c(C)c1CC(=O)N(C)Cc1ccccc1` stands 1110 s. `CCc1ccc(C2=Nc3cccnc3N(CC(=O)Nc3ccc4c(c3)OCCO4)C(=O)C2)cc1` gave an RP-LC retention time of 1020 s.
